Test results as given in patent publication US20040106545A1, “Compounds and methods for modulating cell adhesion” (priority 1996, published 2004).
“Also recorded” adds a separate entry of the source. Read-outs that look alike come from different tables or passages of the source. Positions of bridges follow the written chain, without caps; N, C: chain ends. Residues, ends and D or L forms follow the SMILES beside them.

Tests used:
HUVEC = type: cell-based, human; conditions: 3 h
Summary of the method: (§1)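 Human primary endothelial cells, fibroblast lines (IAFp2, WI-38) and cancer lines (MDA-MB231, PC-3) receive the CHAVC peptide or the CHGVC control at ≤100 μM. Viability is scored by MTT and DNA synthesis by ^3H-thymidine uptake.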

MDA-MB231 [1] = type: cell-based, human; conditions: 3 h
Summary of the method: as §1

PC-3 [2] = type: cell-based, human; conditions: 3 h
Summary of the method: as §1

HMVEC = type: cell-based, human; conditions: 3 h
Summary of the method: as §1

IAFp2 = type: cell-based, human; conditions: 3 h
Summary of the method: as §1

WI-38 = type: cell-based, human; conditions: 3 h
Summary of the method: as §1

[3] = system: Bovine pulmonary artery endothelial cells; experiment: Disruption of bovine endothelial cell adhesion; type: cell-based; conditions: 500 μg/ml, 30 minutes
Method: For use within one such assay, bovine pulmonary artery endothelial cells may be harvested by sterile ablation and digestion in 0.1% collagenase (type II; Worthington Enzymes, Freehold, N.J.). Cells may be maintained in Dulbecco's minimum essential medium supplemented with 10% fetal calf serum and 1% antibiotic-antimycotic at 37° C. in 7% CO2 in air. Cultures may be passaged weekly in trypsin-EDTA and seeded onto tissue culture plastic at 20,000 cells/cm^2. Endothelial cultures may be used at 1 week in culture, which is approximately 3 days after culture confluency is established. The cells may be seeded onto coverslips and treated (e.g., for 30 minutes) with modulating agent or a control compound at, for example, 500 μg/ml and then fixed with 1% paraformaldehyde. As noted above, disruption of cell adhesion may be determined visually within 24 hours, by observing retraction of the cells from one another. This assay evaluates the effect of a modulating agent on N-cadherin mediated cell adhesion.
Bovine pulmonary artery endothelial cells were harvested by sterile ablation and digestion in 0.1% collagenase (type II; Worthington Enzymes, Freehold, N.J.). Cells were maintained in Dulbecco's minimum essential medium (Clonetics, San Diego, Calif.) supplemented with 10% fetal calf serum (Atlantic Biologicals, Nor cross, Ga.) and 1% antibiotic-antimycotic at 37° C. in 7% CO2 in air. Cultures were passaged weekly in trypsin-EDTA (Gibco, Grand Island, N.Y.) and seeded onto tissue culture plastic at 20,000 cells/cm^2 for all experiments. Endothelial cultures were used at 1 week in culture, which is approximately 3 days after culture confluency was established. The cells used in all protocols were between 4th passage and 10th passage. The cells were seeded onto coverslips and treated 30 minutes with N—Ac-CHAVC-NH2 (SEQ ID NO:10) or N—Ac-CHGVC-NH2 (SEQ ID NO:11) at 500 μg/ml and then fixed with 1% paraformaldehyde.

MDA-MB231 [4] = experiment: Cytotoxicity, MTT assay, MDA-MB231; type: cell-based, human
Summary of the method: as §1

PC-3 [5] = experiment: Cytotoxicity, MTT assay, PC-3; type: cell-based, human
Summary of the method: as §1

N-cadherin = target: T1, N-cadherin (Gallus gallus, UniProt P10288); experiment: Neurite outgrowth inhibition, rat neurons (Example 21); type: cell-based; conditions: read-out: % Inhibition of neurite outgrowth; 250 μg/mL
T1 construct: expressed in transfected cells; host or cells: 3T3 fibroblasts (monolayer)
T1 sequence (P10288 165-912): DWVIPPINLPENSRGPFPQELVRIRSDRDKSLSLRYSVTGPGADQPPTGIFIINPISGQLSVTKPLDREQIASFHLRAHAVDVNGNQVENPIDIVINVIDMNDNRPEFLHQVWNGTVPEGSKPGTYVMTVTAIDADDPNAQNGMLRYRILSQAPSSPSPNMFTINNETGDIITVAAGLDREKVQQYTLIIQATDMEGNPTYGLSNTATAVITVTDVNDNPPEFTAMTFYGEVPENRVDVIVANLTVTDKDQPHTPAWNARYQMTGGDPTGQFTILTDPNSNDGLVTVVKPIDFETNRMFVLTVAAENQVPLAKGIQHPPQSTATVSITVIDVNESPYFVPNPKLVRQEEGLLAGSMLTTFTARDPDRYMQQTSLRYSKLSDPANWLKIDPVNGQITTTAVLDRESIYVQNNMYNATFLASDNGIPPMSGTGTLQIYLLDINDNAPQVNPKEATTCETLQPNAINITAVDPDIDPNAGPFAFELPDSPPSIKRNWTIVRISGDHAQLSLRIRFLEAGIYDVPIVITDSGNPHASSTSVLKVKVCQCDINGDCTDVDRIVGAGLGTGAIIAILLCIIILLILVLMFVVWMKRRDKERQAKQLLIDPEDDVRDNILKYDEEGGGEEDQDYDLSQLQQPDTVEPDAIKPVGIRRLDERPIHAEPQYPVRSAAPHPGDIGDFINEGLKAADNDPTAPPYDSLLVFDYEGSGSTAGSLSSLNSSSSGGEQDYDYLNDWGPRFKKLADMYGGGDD

Solubility in RPMI = type: physicochemical; conditions: 1 mM
SKOV3 cells = experiment: Disruption of human ovarian cancer cell (SKOV3) adhesion; type: cell-based; conditions: 1 mg/mL media, within 24 hours
Method: FIGS. 37A and 37B are photographs illustrating the effect of N—Ac-CHAVC-Y—NH2 (SEQ ID NO:84) on SKOV3 cell adhesion. A confluent culture of SKOV3 cells was briefly trypsinated and counted using a hemacytometer. The cells were diluted to 5×10^3/mL in MEM (Gibco BRL) containing 10% FBS (Wisent). A 10 mg/mL solution of peptide was added directly to the media at a concentration of 1 mg/mL. The plate was incubated in a humidified chamber at 37° C. for 24 hours in 5% CO2. Morphological changes were evaluated after 24 hours.
The human ovarian cancer cell line SKOV3 (ATCC #HTB-77) expresses N-cadherin. SKOV3 cells were cultured in a modified MEM-based media containing 10% FCS. Cells were grown in T-250 culture flasks and maintained by periodic subculturing. Cyclic peptides were tested on cells grown in individual wells of 96-well culture dishes (surface area of each well was 0.32 cm^2). Cells were harvested from flasks and seeded at a density of 50,000 cells per well in 0.1 mL media containing the cyclic peptides at concentrations of 1, 0.1, or 0.01 mg/mL, or in the absence of cyclic peptide. Media control wells were also established. Cultures were evaluated periodically by microscopic examination under both bright field and phase contrast conditions. Cultures were maintained for 48 hours.

chick N-cadherin = target: T2, chick N-cadherin (Gallus gallus, UniProt P10288); experiment: Neurite outgrowth of rat cerebellar neurons on N-cadherin expressing 3T3 monolayers (Example 15); type: cell-based
T2 construct: expressed in transfected cells; host or cells: 3T3 fibroblasts (monolayer); rat post-natal day 2-3 cerebellar neurons plated on top
T2 sequence (P10288 165-912): T1 sequence (P10288 165-912)

[6] = system: Madin Darby canine kidney (MDCK) cells; type: cell-based; conditions: 18 h
[7] = system: Madin Darby canine kidney (MDCK) cells; type: cell-based
Method: Yet another assay evaluates the effect of a modulating agent on the electrical resistance across a monolayer of cells. For example, Madin Darby canine kidney (MDCK) cells can be exposed to the modulating agent dissolved in medium (e.g., at a final concentration of 0.5 mg/ml for a period of 24 hours). The effect on electrical resistance can be measured using standard techniques. This assay evaluates the effect of a modulating agent on tight junction formation in epithelial cells. In general, the presence of 500 μg/mL modulating agent should result in a statistically significant decrease in electrical resistance after 24 hours.
Madin Darby canine kidney (MDCK) cells were plated in Millicells (Millipore, Bedford, Mass.), at a density of 300,000 cells per Millicell, and cultured in Dulbecco's Modified Eagle Medium (DMEM; Sigma, St. Louis, Mo.) containing 5% fetal calf serum (Sigma, St. Louis, Mo.) until monolayers formed. Monolayers were exposed to the modulating agent dissolved in medium. The electrical resistance was measured using the EVOM device (World Precision Instruments, Sarasota, Fla.). At the time of measurement, fresh medium, with or without the modulating agent, may be added to the Millicells.

[8] = system: Human saphenous vein vascular smooth muscle cells; experiment: Vascular smooth muscle cell apoptosis at migrating wound edge, in situ end labeling; type: cell-based; conditions: 0.2 mg/ml, 24 hours after wounding, n=5, p=0.1
Method: Human saphenous vein vascular smooth muscle cells were explanted from surplus segments of vein from patients undergoing coronary artery bypass surgery. Cells were maintained in Dulbecco's modified essential medium supplemented with […], 2 mmol/L L-glutamine and 10% fetal calf serum and were grown to confluence on glass coverslips. The cell layer was then subjected to scrape-wounding by drawing a fine cell scraper across the coverslip. Proliferation of the vascular smooth muscle cells was inhibited by addition of 2 mM hydroxyurea to the culture media. Vascular smooth muscle cells that are treated in this manner respond to the wounding of the confluent monolayer by migrating into the wound (Hammerle et al (1991) Vasa 20, 207-215). The percentage of apoptotic cells in the migrating edge (outermost 100 μm from the wound) was assessed by in situ end labeling at 24 hours after wounding (as in George et al (2001) Gene Therapy 8 668-676).

L1 = L1 (Homo sapiens, UniProt P32004); experiment: Neurite outgrowth of rat cerebellar neurons on L1 expressing 3T3 monolayers (Example 15); type: cell-based; set-up: expressed in transfected cells; rat cerebellar neurons on top
Chain of L1 (P32004 20-1257): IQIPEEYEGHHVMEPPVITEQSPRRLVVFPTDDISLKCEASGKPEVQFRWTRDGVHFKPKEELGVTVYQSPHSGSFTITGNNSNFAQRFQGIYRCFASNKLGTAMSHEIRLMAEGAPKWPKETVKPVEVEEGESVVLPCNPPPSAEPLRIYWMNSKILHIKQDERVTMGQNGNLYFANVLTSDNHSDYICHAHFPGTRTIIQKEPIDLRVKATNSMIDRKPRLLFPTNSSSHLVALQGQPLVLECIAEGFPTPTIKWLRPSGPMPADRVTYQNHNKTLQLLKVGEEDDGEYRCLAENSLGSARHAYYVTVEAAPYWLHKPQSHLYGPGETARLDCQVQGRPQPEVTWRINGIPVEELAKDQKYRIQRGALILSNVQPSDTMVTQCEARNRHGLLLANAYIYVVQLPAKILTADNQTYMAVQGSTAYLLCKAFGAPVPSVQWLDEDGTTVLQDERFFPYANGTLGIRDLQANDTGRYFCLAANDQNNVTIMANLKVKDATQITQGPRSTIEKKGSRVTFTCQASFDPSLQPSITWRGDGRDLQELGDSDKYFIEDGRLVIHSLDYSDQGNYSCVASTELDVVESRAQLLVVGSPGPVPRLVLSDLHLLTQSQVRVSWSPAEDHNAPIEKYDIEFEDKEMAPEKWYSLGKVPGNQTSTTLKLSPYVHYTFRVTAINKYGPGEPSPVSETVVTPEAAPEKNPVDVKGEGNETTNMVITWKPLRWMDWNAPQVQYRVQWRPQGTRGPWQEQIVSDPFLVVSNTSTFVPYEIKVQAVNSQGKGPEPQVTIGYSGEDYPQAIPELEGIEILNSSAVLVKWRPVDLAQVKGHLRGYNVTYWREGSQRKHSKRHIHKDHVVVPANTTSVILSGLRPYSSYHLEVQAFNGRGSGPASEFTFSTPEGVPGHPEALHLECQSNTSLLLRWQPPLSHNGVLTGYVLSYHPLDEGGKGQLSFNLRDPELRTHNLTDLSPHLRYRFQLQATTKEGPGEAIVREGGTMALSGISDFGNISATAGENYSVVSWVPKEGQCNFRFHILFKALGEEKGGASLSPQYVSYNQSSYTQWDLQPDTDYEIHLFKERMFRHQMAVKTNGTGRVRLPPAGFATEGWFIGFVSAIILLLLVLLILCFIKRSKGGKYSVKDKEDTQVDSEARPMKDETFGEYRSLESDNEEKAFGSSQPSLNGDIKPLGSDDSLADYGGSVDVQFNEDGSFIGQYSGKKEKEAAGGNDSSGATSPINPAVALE
Method: Cell culture and neurite outgrowth assays. Co-cultures of cerebellar neurons on monolayers of control 3T3 cells and monolayers of transfected 3T3 cells that express physiological levels of chick N-cadherin or human L1 were established as previously described (Williams et al., Neuron 13:583-594, 1994). In brief, 80,000 3T3 cells (control and transfected) were plated into individual chambers of an eight-chamber tissue culture slide coated with polylysine and fibronectin and cultured in DMEM/10% FCS. After 24 hours, when confluent monolayers had formed, the medium was removed and 3000 cerebellar neurons isolated from post-natal day 2-3 rats were plated into each well in SATO media (Doherty et al., Nature 343:464-466, 1990) supplemented with 2% FCS. All of the test peptides were added immediately before the neurons as a 2× stock prepared in SATO/2% FCS. The co-cultures were maintained for 16-18 hours, at which time they were fixed and immunostained for GAP-43 which is present only in the neurons and delineates the neuritic processes. The mean length of the longest neurite per cell was measured for 150-200 neurons sampled in replicate cultures as previously described (Williams et al., Neuron 13:583-594, 1994). […] Dose-response curves were evaluated and the EC50 values determined.
Other cell adhesion molecules, such as L1, can stimulate neurite outgrowth, and this response shares the same downstream signaling steps as the N-cadherin response. […] As previously reported, L1 stimulated neurite outgrowth from cerebellar neurons.

| Structure (SMILES) | IC50 (HUVEC) | IC50 (MDA-MB231 [1]) | IC50 (PC-3 [2]) | IC50 (HMVEC) | IC50 (IAFp2) | IC50 (WI-38) | effect on endothelial cell monolayer / morphology [3] | IC50 (MDA-MB231 [4]) | IC50 (PC-3 [5]) | inhibition at 250 µg/mL (N-cadherin) | solubility in RPMI (Solubility in RPMI) | disruption of SKOV3 cell adhesion (SKOV3 cells) | % inhibition of N-cadherin dependent neurite outgrowth (chick N-cadherin; 125 μg/mL, 16-18 hours) | inhibition at 125 µg/mL (chick N-cadherin; 125 μg/mL, 16-18 hours, read-out: % Inhibition of N-Cadherin Dependent Neurite Outgrowth) | EC50 [6] | effect on electrical resistance across MDCK cells (in words) [7] | inhibitory activity on N-cadherin dependent neurite outgrowth, structure/activity statements (chick N-cadherin; Tables 8 and 9) | increase in apoptosis at wound edge [8] | inhibition at 125 µg/mL (L1; 125 μg/ml, read-out: % Inhibition of L1 Response) | effect on L1 stimulated neurite outgrowth (in words) (L1; concentrations that inhibited the N-cadherin response (100 μg/mL in FIG. 24)) |
| --- | --- | --- | --- | --- | --- | --- | --- | --- | --- | --- | --- | --- | --- | --- | --- | --- | --- | --- | --- | --- |
| CC[C@H](C)[C@@H]1NC(=O)[C@H](CC(=O)O)NC(=O)[C@H](C(C)C)NC(=O)CNC(=O)[C@H](Cc2c[nH]cn2)NC(=O)[C@H](C)NC(=O)[C@@H](NC(C)=O)CSSC[C@@H](C(N)=O)NC1=O (Ac-CAHGVDIC-NH2; disulfide 1-8) | > 100 µM | > 100 µM | > 100 µM | > 100 µM | > 100 µM | > 100 µM | neither of the cyclic peptides show activity | > 100 µM | > 100 µM | 0% |  |  |  |  |  |  |  |  |  |  |
| CC(=O)N[C@H]1CSSC[C@@H](C(N)=O)NC(=O)[C@H](CO)NC(=O)[C@H](CO)NC(=O)[C@H](C(C)C)NC(=O)[C@H](C)NC(=O)[C@H](Cc2c[nH]cn2)NC(=O)[C@H](CO)NC1=O (Ac-CSHAVSSC-NH2; disulfide 1-8 (inferred)) | 69 µM | 76 µM | > 100 µM | 70 µM | > 100 µM | > 100 µM |  | > 100 µM | > 100 µM | 0% | *Incompletely soluble in RPMI at 1 mM |  |  |  |  |  |  |  |  |  |
| CC(=O)N[C@H]1CSSC[C@@H](C(=O)N[C@@H](Cc2ccc(O)cc2)C(N)=O)NC(=O)[C@H](C(C)C)NC(=O)[C@H](C)NC(=O)[C@H](Cc2c[nH]cn2)NC1=O [N—Ac—CHAVCY—NH2] (Ac-CHAVCY-NH2; disulfide 1-5) |  |  |  |  |  |  |  |  |  |  |  | disrupted SKOV3 cell adhesion | 89.8 ± 6.8% | 89.9% | 210 µM | the most active |  |  |  |  |
| CC[C@H](C)[C@@H]1NC(=O)[C@H](CC(=O)O)NC(=O)[C@H](C(C)C)NC(=O)[C@H](C)NC(=O)[C@H](Cc2c[nH]cn2)NC(=O)[C@@H](NC(C)=O)CSSC[C@@H](C(N)=O)NC1=O [N—Ac—CHAVDIC—NH2] (Ac-CHAVDIC-NH2; disulfide 1-7) |  |  |  |  |  |  |  |  |  |  |  |  |  |  |  | complete abrogation of E-cadherin specific activity | further increased activity; also recorded: potent inhibitors | 1.3 fold | 6 ± 4.7% | did not interfere with the ability of neurons to extend neurites over 3T3 cells expressing L1 |
